The text below walks through data of US8901118B2, “Compounds and methods for kinase modulation, and indications therefor” (Plexxikon Inc., priority 2010, dated 2014).

As usually defined, the IC50 is the concentration that gives 50% inhibition.

Structures are written as SMILES.

One assay addresses CYP2D6 (Homo sapiens, UniProt P10635). Briefly: CYP2D6 inhibition (fluorescent substrate AMMC). The format is in vitro ADME. Particulars: read-out: Cyp IC50 2D6. As for the experimental part:
(§1) CYP (Cytochrome P450) enzymes are the major drug metabolizing enzymes present in the liver. The inhibition of CYP enzyme activity (IC50) for each of CYP1A2, CYP2C19, CYP2C9, CYP2D6, CYP3A4(BFC) and CYP3A4(BQ) is determined for compounds, where inhibition of metabolism of a known substrate leads to a decrease in the fluorescence of the metabolized product. The fluorescence of the product is monitored as a function of compound concentration. Compounds are dissolved in DMSO to a concentration of 100 mM. These are diluted 1 μL into 82 μL of acetonitrile. An 11 μL aliquot of this solution is then added to 204 μL of cofactor mix (1.3% NADPH Regeneration system Solution A, 1.04% NADPH Regeneration system Solution B from BD Biosciences, 5% acetonitrile and 0.05% DMSO). These are then serially diluted 1:1 (160 μL to 160 μL co-factor mix) for a total of 10 points. A 10 μL aliquot of this final mixture is dispensed into 384 well assay plates and incubated for 10 minutes at 37° C. […] Assay plates are incubated at 37° C. (CYP1A2-15 min; CYP2C9-45 min; CYP2C19, 2D6 and 3A4-30 min) and read in a Tecan Safire 2 plate reader (CYP1A2, 2C19 and 3A4 409 ex/460 em; CYP2C9 and 2D6 409 ex/530 em). The signal versus compound concentration is used to determine the IC50. The enzymes and substrates for this assay are obtained from BD Biosciences.

For a further assay, the target named is CYP2C9 (Homo sapiens, UniProt P11712). Nature of the assay: CYP2C9 inhibition (fluorescent substrate MFC). Conditions: read-out: Cyp IC50 2C9. The format is in vitro ADME. On the procedure:
as §1

The target of the next assay is TrkA kinase (Homo sapiens, UniProt P04629). Briefly: TrkA kinase biochemical activity assay (AlphaScreen). Conditions: 100 μM ATP; read-out: Biochemical Inhibition IC50 TrkA. As for the experimental part: In one assay the biochemical activity IC50 values are determined with respect to inhibition of TrkA kinase activity, where inhibition of phosphorylation of a peptide substrate is measured as a function of compound concentration. Compounds to be tested, dissolved in DMSO (1 μL), are added to a white 384-well plate (Costar #3705). Working stocks of TrkA kinase (UBI), biotin-(E4Y)10 substrate (Upstate Biotech, Cat#12-440), and ATP (Sigma, Cat#A-3377) are prepared in 25 mM Hepes pH 7.5, 10 mM MnCl2, 1 mM DTT, 0.01% BSA, and 0.01% Tween-20. All components are added to the 384-well plate for a final concentration of 1 ng/well TrkA, 30 nM biotin-(E4Y)10 and 100 μM ATP in a volume of 20 μL. Each sample is at 5% DMSO. The plate is shaken for 1 minute at 1200 rpm, spun for 1 minute at 1000 rpm, then incubated for 40 minutes at room temperature. Just before use, working stocks of donor and acceptor beads from the AlphaScreen PY20 Detection Kit (PerkinElmer, Cat#676601M) are prepared in 25 mM Hepes pH 7.5, 100 mM EDTA. 0.01% BSA. Donor Beads solution (Streptavidin beads) is added (5 μL) to each well to final bead concentration of 10 μg/mL. The plate is incubated at room temperature for 20 minutes. Acceptor Beads solution (PY20 coated beads) are then added to each well (5 μL) to a final concentration of bead at 10 μg/mL. The plates are incubated at room temperature for 60 minutes. Fluorescence signal is recorded on the Envision reader. Phosphorylated substrate results in binding of the PY20 antibody and association of the donor and acceptor beads such that signal correlates with kinase activity. The signal vs. compound concentration is used to determine the IC50. Similar assays are used for TrkB and Trk C kinase.
In general terms: Bead proximity is the source of the signal in Alpha formats.

In another assay the target is CYP2C19 (Homo sapiens, UniProt P33261). Nature of the assay: CYP2C19 inhibition (fluorescent substrate CEC). The format is in vitro ADME. Conditions: read-out: Cyp IC50 2C19. On the procedure: as §1
Another assay concerns the target CYP3A4(BFC) (Homo sapiens, UniProt P08684). Nature of the assay: CYP3A4(BFC) inhibition. The assay is classed as in vitro ADME. Conditions: CYP3A4, substrate BFC; read-out: Cyp IC50 3A4(BFC). On the procedure:
as §1

TrkA kinase, sequence (P04629 33-796): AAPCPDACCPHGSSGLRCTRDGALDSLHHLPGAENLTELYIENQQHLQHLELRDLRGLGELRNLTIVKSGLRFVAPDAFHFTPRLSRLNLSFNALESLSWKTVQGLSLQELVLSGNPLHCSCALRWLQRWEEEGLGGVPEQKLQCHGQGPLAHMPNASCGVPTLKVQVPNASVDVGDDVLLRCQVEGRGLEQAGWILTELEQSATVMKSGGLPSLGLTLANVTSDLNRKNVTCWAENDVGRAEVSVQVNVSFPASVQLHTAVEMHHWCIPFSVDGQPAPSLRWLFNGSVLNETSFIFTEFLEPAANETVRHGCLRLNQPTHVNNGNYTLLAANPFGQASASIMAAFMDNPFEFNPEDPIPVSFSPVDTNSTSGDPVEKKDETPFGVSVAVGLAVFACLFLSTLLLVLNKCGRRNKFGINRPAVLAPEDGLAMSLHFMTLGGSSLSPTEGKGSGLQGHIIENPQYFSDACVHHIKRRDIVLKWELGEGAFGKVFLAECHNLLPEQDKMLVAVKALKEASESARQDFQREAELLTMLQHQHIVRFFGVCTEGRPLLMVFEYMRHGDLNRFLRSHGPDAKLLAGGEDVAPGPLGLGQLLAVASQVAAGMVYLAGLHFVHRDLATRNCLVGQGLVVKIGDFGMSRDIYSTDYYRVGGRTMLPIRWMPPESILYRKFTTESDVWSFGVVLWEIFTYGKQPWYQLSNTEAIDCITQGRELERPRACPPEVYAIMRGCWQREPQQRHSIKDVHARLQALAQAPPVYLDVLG
CYP2C19, sequence (P33261 whole entry): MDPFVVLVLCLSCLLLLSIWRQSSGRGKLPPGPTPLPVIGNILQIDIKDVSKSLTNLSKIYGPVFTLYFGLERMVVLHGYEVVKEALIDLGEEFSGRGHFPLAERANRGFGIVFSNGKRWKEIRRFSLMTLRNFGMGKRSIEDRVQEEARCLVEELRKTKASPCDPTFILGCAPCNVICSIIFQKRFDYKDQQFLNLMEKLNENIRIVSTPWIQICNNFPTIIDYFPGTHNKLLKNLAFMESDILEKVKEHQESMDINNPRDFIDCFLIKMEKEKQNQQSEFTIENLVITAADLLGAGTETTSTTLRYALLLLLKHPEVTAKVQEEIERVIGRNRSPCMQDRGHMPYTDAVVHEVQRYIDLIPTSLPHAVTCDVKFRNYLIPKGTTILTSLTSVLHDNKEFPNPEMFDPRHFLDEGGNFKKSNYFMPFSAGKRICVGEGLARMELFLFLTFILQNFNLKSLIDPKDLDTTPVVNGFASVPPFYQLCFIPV
CYP3A4(BFC), sequence (P08684 whole entry): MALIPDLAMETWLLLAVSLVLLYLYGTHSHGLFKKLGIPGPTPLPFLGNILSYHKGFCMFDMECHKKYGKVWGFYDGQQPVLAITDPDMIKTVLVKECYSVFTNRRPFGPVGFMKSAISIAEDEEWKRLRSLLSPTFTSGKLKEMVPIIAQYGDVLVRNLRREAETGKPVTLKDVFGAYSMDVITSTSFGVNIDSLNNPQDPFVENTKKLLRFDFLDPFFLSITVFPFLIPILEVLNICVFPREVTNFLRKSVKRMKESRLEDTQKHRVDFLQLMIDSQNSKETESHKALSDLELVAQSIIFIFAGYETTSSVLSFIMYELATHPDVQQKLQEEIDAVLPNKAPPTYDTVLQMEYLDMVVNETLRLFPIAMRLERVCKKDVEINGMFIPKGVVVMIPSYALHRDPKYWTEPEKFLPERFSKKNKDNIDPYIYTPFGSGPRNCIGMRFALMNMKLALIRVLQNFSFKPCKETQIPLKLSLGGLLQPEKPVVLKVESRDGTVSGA
CYP2D6, sequence (P10635 whole entry): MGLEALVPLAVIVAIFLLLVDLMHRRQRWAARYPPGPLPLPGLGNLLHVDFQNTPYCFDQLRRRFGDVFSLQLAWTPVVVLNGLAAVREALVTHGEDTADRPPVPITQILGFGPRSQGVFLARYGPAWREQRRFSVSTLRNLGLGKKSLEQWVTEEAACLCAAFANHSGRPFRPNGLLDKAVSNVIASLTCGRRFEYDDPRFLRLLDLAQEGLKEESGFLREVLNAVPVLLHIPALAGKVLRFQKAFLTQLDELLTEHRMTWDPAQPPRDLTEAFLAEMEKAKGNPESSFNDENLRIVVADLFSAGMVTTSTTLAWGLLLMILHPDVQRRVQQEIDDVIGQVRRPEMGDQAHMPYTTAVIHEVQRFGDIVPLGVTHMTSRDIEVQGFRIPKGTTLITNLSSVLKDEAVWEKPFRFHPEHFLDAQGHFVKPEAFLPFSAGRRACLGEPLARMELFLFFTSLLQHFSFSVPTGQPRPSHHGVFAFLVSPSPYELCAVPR
CYP2C9, sequence (P11712 whole entry): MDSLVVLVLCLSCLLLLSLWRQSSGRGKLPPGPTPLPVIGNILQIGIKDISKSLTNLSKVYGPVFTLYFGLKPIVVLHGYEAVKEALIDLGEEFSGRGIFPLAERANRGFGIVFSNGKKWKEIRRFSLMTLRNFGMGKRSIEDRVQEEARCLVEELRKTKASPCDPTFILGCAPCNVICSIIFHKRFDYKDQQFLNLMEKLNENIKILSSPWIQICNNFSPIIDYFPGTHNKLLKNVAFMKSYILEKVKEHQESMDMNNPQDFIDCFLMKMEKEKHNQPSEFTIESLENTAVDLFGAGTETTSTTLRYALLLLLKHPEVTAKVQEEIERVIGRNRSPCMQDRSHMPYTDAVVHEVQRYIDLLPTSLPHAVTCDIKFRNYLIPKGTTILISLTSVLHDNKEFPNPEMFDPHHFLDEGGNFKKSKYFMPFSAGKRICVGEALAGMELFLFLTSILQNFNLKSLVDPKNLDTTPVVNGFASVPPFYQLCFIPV

For the compound `CNc1ncnc2[nH]cc(C(=O)c3ccc(NC4CCC(F)(F)CC4)nc3F)c12` [Compound P-4063, [6-[(4,4-difluorocyclohexyl)amino]-2-fluoro-3-pyridyl]-[4-(methylamino)-7H-pyrrolo[2,3-d]pyrimidin-5-yl]methanone], the IC50 was greater than 10 µM at CYP2D6; greater than 10 µM on CYP2C9; less than 0.01 µM on TrkA kinase; greater than 10 µM at CYP2C19; greater than 10 µM on CYP3A4(BFC).

Regarding `CCc1ccc(Nc2ccc(C(=O)c3c[nH]c4ncnc(NCC(C)(C)O)c34)c(F)n2)cn1` [Compound P-4064, [6-[(6-ethyl-3-pyridyl)amino]-2-fluoro-3-pyridyl]-[4-[(2-hydroxy-2-methyl-propyl)amino]-7H-pyrrolo[2,3-d]pyrimidin-5-yl]methanone], the IC50 on CYP2D6 was greater than 10 µM; on CYP2C9, greater than 10 µM; on TrkA kinase, less than 0.01 µM; on CYP2C19 it was greater than 10 µM; on CYP3A4(BFC), greater than 10 µM.

With `CCc1ccc(Nc2ccc(C(=O)c3c[nH]c4ncnc(N)c34)c(F)n2)cn1` [Compound P-4065, (4-amino-7H-pyrrolo[2,3-d]pyrimidin-5-yl)-[6-[(6-ethyl-3-pyridyl)amino]-2-fluoro-3-pyridyl]methanone], the concentration for half-maximal inhibition (IC50) was greater than 10 µM at CYP2D6; greater than 10 µM on CYP2C9; less than 0.01 µM at TrkA kinase; greater than 10 µM on CYP2C19; greater than 10 µM on CYP3A4(BFC).

For `COc1ccc(Nc2ccc(C(=O)c3c[nH]c4ncnc(NC(C)C)c34)c(F)n2)cn1` [Compound P-4066, [2-fluoro-6-[(6-methoxy-3-pyridyl)amino]-3-pyridyl]-[4-(isopropylamino)-7H-pyrrolo[2,3-d]pyrimidin-5-yl]methanone], the IC50 is greater than 10 µM at CYP2D6; greater than 10 µM on CYP2C9; less than 0.01 µM at TrkA kinase; greater than 10 µM on CYP2C19; greater than 10 µM on CYP3A4(BFC).

Regarding `COc1ccc(Nc2ccc(C(=O)c3c[nH]c4ncnc(NCC5CC5)c34)c(F)n2)cn1` [Compound P-4067, [4-(cyclopropylmethylamino)-7H-pyrrolo[2,3-d]pyrimidin-5-yl]-[2-fluoro-6-[(6-methoxy-3-pyridyl)amino]-3-pyridyl]methanone], the IC50 was greater than 10 µM on CYP2D6; greater than 10 µM at CYP2C9; less than 0.01 µM at TrkA kinase; 5 to 10 µM on CYP2C19; greater than 10 µM at CYP3A4(BFC).

As to `CCCNc1ncnc2[nH]cc(C(=O)c3ccc(Nc4ccc(OC)nc4)nc3F)c12` [Compound P-4068, [2-fluoro-6-[(6-methoxy-3-pyridyl)amino]-3-pyridyl]-[4-(propylamino)-7H-pyrrolo[2,3-d]pyrimidin-5-yl]methanone], the IC50 on CYP2D6 is greater than 10 µM; at CYP2C9 it was greater than 10 µM; at TrkA kinase it was less than 0.01 µM; on CYP2C19 it was greater than 10 µM; on CYP3A4(BFC) it was greater than 10 µM.

Take `COc1ccc(Nc2ccc(C(=O)c3c[nH]c4ncnc(N5CCCCC5)c34)c(F)n2)cn1` [Compound P-4069, [2-fluoro-6-[(6-methoxy-3-pyridyl)amino]-3-pyridyl]-[4-(1-piperidyl)-7H-pyrrolo[2,3-d]pyrimidin-5-yl]methanone]: the IC50 at CYP2D6 was greater than 10 µM; on CYP2C9, greater than 10 µM; on TrkA kinase it was less than 0.1 µM; at CYP2C19 it was 5 to 10 µM; on CYP3A4(BFC) it was 5 to 10 µM.

For `COc1ccc(Nc2ccc(C(=O)c3c[nH]c4ncnc(N5CCOCC5)c34)c(F)n2)cn1` [Compound P-4070, [2-fluoro-6-[(6-methoxy-3-pyridyl)amino]-3-pyridyl]-(4-morpholino-7H-pyrrolo[2,3-d]pyrimidin-5-yl)methanone], the IC50 at CYP2D6 is greater than 10 µM; on CYP2C9, greater than 10 µM; at TrkA kinase, greater than 1 µM; at CYP2C19, greater than 10 µM; at CYP3A4(BFC), greater than 10 µM.
